Measured values reported in patent publication US9732088B2, “C2-carbocyclic iminothiazine dioxides as BACE inhibitors, compositions, and their use” (Merck Sharp & Dohme Corp., priority 2014, dated 2017).

Key:
[1] = system: CSF Aβ40; assay: Aβ Reduction In Vivo (rat CSF Aβ40); details: male CD IGS rats, 10 mg/kg oral gavage, CSF at 3 hours, change vs vehicle
Method: Assay 5: Aβ Reduction In Vivo
The in vivo efficacy and/or potency of BACE inhibitors (test compounds) can be evaluated using a variety of animal models, including mouse, rat, dog, and monkey, and these animals can be wild type, transgenic, or gene knockout animals.
Generally, animals are administered (by oral gavage, intravenous injection, or by other suitable route) a test compound in doses ranging from, for example, 0.1 mg/kg (mg of compound per kg of animal body weight) to 100 mg/kg formulated in vehicles, such as cyclodextrin, phosphate buffer, hydroxypropyl methylcellulose or other suitable vehicles. One to twenty-four hours following the administration of compound, animals are sacrificed, and tissues (for example, brain, cerebrospinal fluid (CSF), and/or plasma) are collected for analysis of Aβ levels and/or test compound concentrations (Dovey et al., 2001, Journal of Neurochemistry, 76, 173-181). Tissue samples are processed appropriately and then analyzed for the presence of Aβ by specific sandwich ELISA assays based on electrochemiluminescence (ECL) technology.
For example, in the following assay for which data are reported below, male CD IGS rats (body weight approximately 120 g, Charles River Laboratories, Kingston, N.Y.) were used to assess lowering of CSF levels of Aβ1-40 (Aβ40) in the presence of compounds of the invention. At time 0, animals were administered by oral gavage a test compound at a dose of 10 mg/kg in 20% hydroxypropyl-β-cyclodextrin (dosing volume 5 mL/kg). A separate group of animals received 20% hydroxypropyl-β-cyclodextrin alone to serve as the vehicle control group. Three hours after administration, the rats were euthanized with excess CO2. Immediately following euthanasia, CSF was collected from the cisterna magna and quickly frozen on dry ice. Samples were stored at −80° C. until quantification of Aβ40 levels.
The measurement of endogenous rat Aβ40 in CSF relied on the 585 antibody (Ab585, BioSource, NONO585), which specifically recognizes the N-terminal sequence of rodent Aβ40, and on the monoclonal antibody, G2-10, which specifically recognizes the free C-terminus of Aβ40. Ab585 was labeled with biotin (b-Ab585) by first dialyzing the antibody sample extensively versus PBS (pH 7.8) to remove impurities, followed by dilution to between 1 and 2 mg/mL protein concentration. EZ-Link Sulfo-NHS-LC-Biotin (Pierce) was dissolved in PBS (pH 7.8) at a concentration of 1 mg/mL immediately prior to use. Ab585 was labeled with EZ-Link Sulfo-NHS-LC-biotin using a 10:1 biotin:antibody ratio by incubation at room temperature for 1 hour. The labeling reaction was quenched by addition of 1.0 M glycine to a final concentration of 0.1 M followed by 10 minute incubation at room temperature. Glycine was removed by extensive dialysis versus PBS.
For rat CSF Aβ40 determinations, a calibration curve of various concentrations of synthetic rodent Aβ40 was assayed in parallel with rat CSF samples in duplicate using an avidin-coated 96-well MSD plate (Mesoscale Diagnostics). Either 50 μL of rodent Aβ40 standards diluted in PBS (pH 7.4) supplemented with 1% BSA and 1% Tween-20 (standard diluent buffer) or 40 μL of standard diluent buffer plus 10 μL rat CSF were added to each 96 well avidin-coated plate. To each well was added 50 μL of 0.1 M HEPES (pH 7.5), 2% BSA, 2% Tween-20, 0.3 M NaCl (2×Aβ40 buffer) supplemented with the b-Ab585 capture and ruthenylated-G2-10 detection antibodies diluted to 1 μg/mL and 0.5 μg/mL, respectively. Plates were shaken for 1 min on a microplate shaker, covered to protect from light and incubated overnight (˜16 h) at 4° C. For detection, plates were first washed twice with 100 μL of 1×CSF Aβ40 buffer followed by addition of 160 μL of 1×MSD read buffer-T (Mesoscale Diagnostics) diluted in 1×CSF Aβ40 buffer. Plates were read on a MSD Sector Imager 2400 model (Mesoscale Diagnosotics). […]

[2] = target: rat Mdr1a (P-gp) (Rattus norvegicus, UniProt Q6PSM0); assay: P-Glycoprotein (P-gp) Efflux Susceptibility Assay; assay type: in vitro ADME; details: LLC-PK1, pH 7.4; rat LLC-Mdr1a cells, B-A/A-B Papp ratio at 3 h; method 0.1 μM; read-out: P-gp efflux assay (rMDR1a BAAB)
Method: Assay 6: P-Glycoprotein (P-Gp) Efflux Susceptibility Assay
As P-gp is expressed at the blood-brain-barrier, among other tissues, lower P-gp efflux ratio values are associated with a better ability to cross the blood-brain-barrier to reach the site of BACE-1 expression in the central nervous system. P-gp efflux ratios are measured in cellular assays using cell lines that express P-gp from a number of species including rat, monkey, and human. The following assay was used to measure the rat P-gp efflux ratios, which are believed to be the most sensitive measure of P-gp susceptibility, for the compounds of the invention (test compounds) reported in the tables below.
The bidirectional transport of test compounds was conducted across pig kidney epithelial (LLC-PK1) cell monolayers. Native LLC-PK1 cells were obtained from The Netherlands Cancer Institute (Amsterdam, The Netherlands), and used under a license agreement. LLC-PK1 cells expressing a cDNA encoding rat Mdr1a (rat LLC-Mdr1a) were made in-house by stable transfection of LLC-PK1 cells with a rat MDR1 cDNA. LLC-PK1 and rat LLC-Mdr1a cell lines were cultured in 96-well transwell culture plates. […] Substrate solution (150 μL) was added to either the apical (A) or the basolateral (B) compartment of the culture plate, and buffer (150 μL; HBSS, 10 mM HEPES, pH 7.4) was added to the compartment opposite to that containing the compound. At t=3 h, 50 μL samples were removed from both sides of monolayers dosed with test compound and placed in 96 well plates, internal standard (50 μL 1 μM labetolol) was added to the samples. Samples were analyzed by LC/MS/MS using an Applied Biosystems SCIEX API 5000 triple quadruple mass spectrometry (Concord, ON, Canada) with a TurbolonSpray ion source in the positive ion mode. A Thermo Scientific Transcend LX-2 system (Franklin, Mass.) was coupled to the API 5000 with a flow rate of 800 μL/min to direct sample into the mass spectrometer. A Waters ACQUITY UPLC T3 (2×30 mm, 1.7 μm; Milford, Mass.) column was used for sample analysis. Mobile phase A consisted of 0.1% formic acid in water. Mobile phase B was acetonitrile with 0.1% formic acid. A gradient elution program was utilized where the solvent composition was held at 5% B for 0.25 min, changed from 5% B to 95% B at 0.25 min, and followed by holding at 95% B for 0.5 min, then, went back to 5% B at 0.75 min. The column was then re-equilibrated at the original solvent composition for 0.5 min. Mass spectrometric detection was accomplished by multiple reaction monitoring (MRM) of transitions unique to each compound. Sample concentration was obtained by extrapolation from the standard curve. Verapamil (1 μM) was used as the positive control to assess the functional activity of Pgp. The experiment was performed in triplicate.
The Papp was calculated by the following formula for samples taken at t=3 h:
[formula] where “Volume of Receptor Chamber” is 0.15 mL, “Area of membrane” is 0.11 cm^2, the “Initial Concentration” is the sum of the concentration measured in the donor compartment plus the concentration measured in the receiver compartment at t=3 h, “Δ in Concentration” is the concentration in the receiver compartment at 3 h, and “Δ in Time” is the incubation time (3×60×60=10800 s). Papp was expressed as 10^−6 cm/s.
The Papp reported in the table below is the average of the Papp for transport from A to B and Papp for transport from B to A at t=3 hr.
The B-A/A-B ratio (BAAB) was calculated by dividing the Papp from B to A by the Papp from A to B at t=3 h: […]

[3] = target: BACE-1 (Homo sapiens (Human), UniProt P56817); assay: BACE-1 Cellular Assay (Aβ in HEK293-APPswe/lon cells); assay type: cell-based; details: 4 hours
How it was run: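 HEK293 cells stably expressing human APP with Swedish and London FAD mutations, cultured at 37° C., 5% CO2. Aβ40 or Aβ42 in conditioned media measured by electrochemiluminescent ELISA (WO2 capture; G2-10 or G2-11 detection). IC50 from variable-slope sigmoidal fit of signal versus compound concentration.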

Chain of BACE-1 (P56817 46-501): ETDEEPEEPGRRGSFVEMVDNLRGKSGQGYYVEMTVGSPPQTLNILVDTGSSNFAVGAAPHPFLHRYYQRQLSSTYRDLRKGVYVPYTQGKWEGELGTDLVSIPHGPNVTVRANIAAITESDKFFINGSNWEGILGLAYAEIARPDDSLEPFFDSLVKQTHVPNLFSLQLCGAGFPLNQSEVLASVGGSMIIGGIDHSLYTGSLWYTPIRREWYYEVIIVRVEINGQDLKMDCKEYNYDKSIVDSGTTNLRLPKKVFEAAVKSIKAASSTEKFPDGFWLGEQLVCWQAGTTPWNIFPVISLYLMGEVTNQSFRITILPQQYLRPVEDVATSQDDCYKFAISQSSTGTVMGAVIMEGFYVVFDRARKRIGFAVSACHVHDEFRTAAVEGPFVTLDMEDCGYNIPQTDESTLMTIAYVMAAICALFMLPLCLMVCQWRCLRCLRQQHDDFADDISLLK
Chain of rat Mdr1a (P-gp) (Q6PSM0 1-1272): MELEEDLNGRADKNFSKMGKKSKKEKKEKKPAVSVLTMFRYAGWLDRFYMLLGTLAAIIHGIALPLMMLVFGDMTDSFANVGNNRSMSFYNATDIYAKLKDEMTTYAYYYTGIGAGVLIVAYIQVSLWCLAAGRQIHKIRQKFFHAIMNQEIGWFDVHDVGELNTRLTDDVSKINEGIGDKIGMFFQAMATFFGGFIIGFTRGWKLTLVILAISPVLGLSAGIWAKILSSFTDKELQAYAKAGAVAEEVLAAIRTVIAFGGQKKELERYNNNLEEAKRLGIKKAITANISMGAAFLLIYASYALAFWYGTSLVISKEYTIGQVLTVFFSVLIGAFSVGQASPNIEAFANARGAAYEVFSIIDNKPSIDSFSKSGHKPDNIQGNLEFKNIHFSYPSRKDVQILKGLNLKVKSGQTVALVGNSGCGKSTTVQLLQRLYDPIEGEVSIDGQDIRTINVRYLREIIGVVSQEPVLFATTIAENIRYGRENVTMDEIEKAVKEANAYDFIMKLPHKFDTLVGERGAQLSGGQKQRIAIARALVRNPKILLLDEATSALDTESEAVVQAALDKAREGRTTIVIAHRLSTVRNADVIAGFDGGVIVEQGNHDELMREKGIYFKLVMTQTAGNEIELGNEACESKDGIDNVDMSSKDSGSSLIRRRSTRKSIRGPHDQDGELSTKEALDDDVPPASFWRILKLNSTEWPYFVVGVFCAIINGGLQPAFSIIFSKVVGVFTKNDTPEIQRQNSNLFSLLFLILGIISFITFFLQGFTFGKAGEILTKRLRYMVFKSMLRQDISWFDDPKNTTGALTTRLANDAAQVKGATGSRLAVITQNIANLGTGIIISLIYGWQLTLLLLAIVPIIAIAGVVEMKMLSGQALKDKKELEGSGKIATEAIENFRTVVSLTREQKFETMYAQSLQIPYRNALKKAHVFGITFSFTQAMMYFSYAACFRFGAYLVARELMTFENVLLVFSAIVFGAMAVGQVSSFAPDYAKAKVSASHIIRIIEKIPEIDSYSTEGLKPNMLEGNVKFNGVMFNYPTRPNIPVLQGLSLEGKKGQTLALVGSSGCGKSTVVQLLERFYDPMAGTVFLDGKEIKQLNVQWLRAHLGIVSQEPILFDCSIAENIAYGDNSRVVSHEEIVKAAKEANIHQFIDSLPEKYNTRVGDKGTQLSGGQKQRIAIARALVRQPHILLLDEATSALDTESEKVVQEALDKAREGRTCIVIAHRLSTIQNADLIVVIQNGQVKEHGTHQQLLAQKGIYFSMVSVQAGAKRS

- efflux ratio at 3 h [2]: 6.1
- IC50 [3]: 24 nM
Compound: C[C@@]1(c2cc(Nc3nccc4cc(C#N)cnc34)ccc2F)CS(=O)(=O)[C@@](CF)(C2CC2)C(N)=N1 [Example 1, 8-({3-[(3R,6S)-6-cyclopropyl-6-(fluoromethyl)-5-imino-3-methyl-1,1-dioxidothiomorpholin-3-yl]-4-fluorophenyl}amino)-1,7-naphthyridine-carbonitrile]
- Aβ reduction in vivo in rat (Δ% CSF Aβ40 @ 10 mpk) [1]: −58%
